Results reported in US20250230193A1, “CYCLIC COMPOUND HAVING SELECTIVE KRAS INHIBITORY EFFECT ON HRAS AND NRAS” (CHUGAI SEIYAKU KABUSHIKI KAISHA, priority 2022, published 2025).

What was measured:
[1] = biological target: GDP-bound NRAS wild-type protein (Homo sapiens, UniProt P01111); assay: Binding to NRAS by surface plasmon resonance (SPR), Single Cycle Kinetics; conditions: SPR; KD ratio class
[2] = biological target: GDP-bound HRAS wild-type protein (Homo sapiens, UniProt P01112); assay: Binding to HRAS by surface plasmon resonance (SPR), Single Cycle Kinetics; conditions: SPR; KD ratio class
GDP-bound HRAS wild-type protein, sequence (P01112 whole entry): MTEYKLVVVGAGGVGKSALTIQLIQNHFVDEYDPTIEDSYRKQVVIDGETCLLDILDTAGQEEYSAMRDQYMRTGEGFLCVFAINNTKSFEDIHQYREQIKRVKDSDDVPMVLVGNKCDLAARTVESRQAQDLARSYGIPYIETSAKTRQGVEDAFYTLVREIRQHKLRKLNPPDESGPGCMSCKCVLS

[3] = system: human lung cancer strain NCI-H441; assay: cells; conditions: NCI-H441, 96 h, read-out: NCI-H441 IC50 (nM)

GDP-bound NRAS wild-type protein, sequence (P01111 whole entry): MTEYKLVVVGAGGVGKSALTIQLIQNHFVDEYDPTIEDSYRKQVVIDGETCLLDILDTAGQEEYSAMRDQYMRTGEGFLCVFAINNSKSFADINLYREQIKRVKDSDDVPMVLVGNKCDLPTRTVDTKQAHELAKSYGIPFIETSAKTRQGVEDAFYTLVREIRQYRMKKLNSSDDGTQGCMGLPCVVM

Row | Compound | NRAS/KRAS (ratio of KD value for GDP-bound NRAS wild-type protein to KD value for KRAS) [1] | HRAS/KRAS (ratio of KD value for GDP-bound HRAS wild-type protein to KD value for KRAS) [2] | IC50 [3] [nM]
1 | CCO[C@@H]1C[C@H]2C(=O)NC3(CCC3)C(=O)N(C)[C@@H](C3CCCC3)C(=O)N(C)[C@H](C(=O)N(C)C)CC(=O)N(C)[C@@H](CC3CCCC3)C(=O)N[C@@H]([C@@H](C)CC)C(=O)N(C)CC(=O)N(C)[C@H]3C/C=C\CCN(C3=O)[C@@H](Cc3ccc(C)cc3)C(=O)N(C)CC(=O)N[C@@H](CCc3ccc(Cl)c(Cl)c3)C(=O)N2C1 [PP1487] | A (a compound having 10 or more and less than 20 is denoted as A) | A (a compound having 10 or more and less than 20 is denoted as A) | 46.6
2 | CCO[C@@H]1C[C@H]2C(=O)NC3(CCC3)C(=O)N(C)[C@@H](C3CCCC3)C(=O)N(C)[C@H](C)CC(=O)N(C)[C@@H](CC3CC3)C(=O)N[C@@H]([C@@H](C)CC)C(=O)N(C)CC(=O)N(C)[C@H]3C/C=C\CCN(C3=O)[C@@H](Cc3ccc(F)cc3C)C(=O)N(C)CC(=O)N[C@@H](CCc3cc(F)c(C(F)(F)F)c(F)c3)C(=O)N2C1 [PP1489] | B (a compound having 3 or more and less than 10 is denoted as B) | B (a compound having 3 or more and less than 10 is denoted as B) | 118
3 | CCO[C@@H]1C[C@H]2C(=O)NC3(CCC3)C(=O)N(C)[C@@H](C3CCCC3)C(=O)N(C)[C@H](C)CC(=O)N(C)[C@@H](CC3CC3)C(=O)N[C@@H]([C@@H](C)CC)C(=O)N(C)CC(=O)N(C)[C@H]3C/C=C\CCN(C3=O)[C@@H](Cc3ccc(F)cc3)C(=O)N(C)CC(=O)N[C@@H](CCc3cc(F)c(C(F)(F)F)c(F)c3)C(=O)N2C1 [PP1490] | B (a compound having 3 or more and less than 10 is denoted as B) | B (a compound having 3 or more and less than 10 is denoted as B) | 48.9
4 | CCO[C@@H]1C[C@H]2C(=O)NC3(CCC3)C(=O)N(C)[C@@H](C3CCCC3)C(=O)N(C)[C@H](C)CC(=O)N(C)[C@@H](CC3CCCC3)C(=O)N[C@@H]([C@@H](C)CC)C(=O)N(C)CC(=O)N(C)[C@H]3C/C=C\CCN(C3=O)[C@@H](Cc3ccc(F)cc3)C(=O)N(C)CC(=O)N[C@@H](CCc3cc(F)c(C(F)(F)F)c(F)c3)C(=O)N2C1 [PP1492] | B (a compound having 3 or more and less than 10 is denoted as B) | B (a compound having 3 or more and less than 10 is denoted as B) | 129
5 | CCO[C@@H]1C[C@H]2C(=O)NC3(CCC3)C(=O)N(C)[C@@H](C3CCCC3)C(=O)N(C)[C@H](C)CC(=O)N(C)[C@@H](CC(C)C)C(=O)N[C@@H]([C@@H](C)CC)C(=O)N(C)CC(=O)N(C)[C@H]3C/C=C\CCN(C3=O)[C@@H](Cc3ccc(F)cc3C)C(=O)N(C)CC(=O)N[C@@H](CCc3cc(F)c(C(F)(F)F)c(F)c3)C(=O)N2C1 [PP1493] | B (a compound having 3 or more and less than 10 is denoted as B) | B (a compound having 3 or more and less than 10 is denoted as B) | 135
6 | CCO[C@@H]1C[C@H]2C(=O)NC3(CCC3)C(=O)N(C)[C@@H](C3CCCC3)C(=O)N(C)[C@H](C)CC(=O)N(C)[C@@H](CC(C)C)C(=O)N[C@@H]([C@@H](C)CC)C(=O)N(C)CC(=O)N(C)[C@H]3C/C=C\CCN(C3=O)[C@@H](Cc3ccc(F)cc3)C(=O)N(C)CC(=O)N[C@@H](CCc3cc(F)c(C(F)(F)F)c(F)c3)C(=O)N2C1 [PP1494] | B (a compound having 3 or more and less than 10 is denoted as B) | B (a compound having 3 or more and less than 10 is denoted as B) | 142
7 | CCO[C@@H]1C[C@H]2C(=O)NC3(CCC3)C(=O)N(C)[C@@H](C3CCCC3)C(=O)N(C)[C@H](C(=O)N3CCOCC3)CC(=O)N(C)[C@@H](CC3CC3)C(=O)N[C@@H]([C@@H](C)CC)C(=O)N(C)CC(=O)N(C)[C@H]3C/C=C\CCN(C3=O)[C@@H](Cc3ccc(F)cc3C)C(=O)N(C)CC(=O)N[C@@H](CCc3cc(F)c(C(F)(F)F)c(F)c3)C(=O)N2C1 [PP1495] | A (a compound having 10 or more and less than 20 is denoted as A) | B (a compound having 3 or more and less than 10 is denoted as B) | 98.7
8 | CCO[C@@H]1C[C@H]2C(=O)NC3(CCC3)C(=O)N(C)[C@@H](C3CCCC3)C(=O)N(C)[C@H](C(=O)N3CCOCC3)CC(=O)N(C)[C@@H](CC3CC3)C(=O)N[C@@H]([C@@H](C)CC)C(=O)N(C)CC(=O)N(C)[C@H]3C/C=C\CCN(C3=O)[C@@H](Cc3ccc(F)cc3)C(=O)N(C)CC(=O)N[C@@H](CCc3cc(F)c(C(F)(F)F)c(F)c3)C(=O)N2C1 [PP1496] | A (a compound having 10 or more and less than 20 is denoted as A) | B (a compound having 3 or more and less than 10 is denoted as B) | 36.7
9 | CC[C@H](C)[C@@H]1NC(=O)[C@H](CC2CCCC2)N(C)C(=O)C[C@@H](C(=O)N(C)C)N(C)C(=O)[C@H](C2CCCC2)N(C)C(=O)C2(CCC2)NC(=O)[C@@H]2C[C@@H](F)CN2C(=O)[C@H](CCc2cc(F)c(C(F)(F)F)c(F)c2)NC(=O)CN(C)C(=O)[C@H](Cc2ccc(C(F)(F)F)cc2)N2CC/C=C\C[C@@H](C2=O)N(C)C(=O)CN(C)C1=O [PP1502] | A (a compound having 10 or more and less than 20 is denoted as A) | A (a compound having 10 or more and less than 20 is denoted as A) | 2
10 | CC[C@H](C)[C@@H]1NC(=O)[C@H](CC2CC2)N(C)C(=O)C[C@@H](C(=O)N(C)C)N(C)C(=O)[C@H](C2CCCC2)N(C)C(=O)C2(CC(C)(C)C2)NC(=O)[C@@H]2C[C@@H](C(F)(F)F)CN2C(=O)[C@H](CCc2cc(F)c(C(F)(F)F)c(F)c2)NC(=O)CN(C)C(=O)[C@H](Cc2ccc(C(F)(F)F)cc2)N2CC/C=C\C[C@@H](C2=O)N(C)C(=O)CN(C)C1=O [PP1504] | A (a compound having 10 or more and less than 20 is denoted as A) | A (a compound having 10 or more and less than 20 is denoted as A) | 38
11 | CC[C@H](C)[C@@H]1NC(=O)[C@H](CC2CC2)N(C)C(=O)C[C@@H](C(=O)N2CCCC2)N(C)C(=O)[C@H](C2CCCC2)N(C)C(=O)C2(CCCC2)NC(=O)[C@@H]2C[C@@H](C(F)(F)F)CN2C(=O)[C@H](CCc2cc(F)c(C(F)(F)F)c(F)c2)NC(=O)CN(C)C(=O)[C@H](Cc2ccc(C(F)(F)F)cc2)N2CC/C=C\C[C@@H](C2=O)N(C)C(=O)CN(C)C1=O [PP1506] | AA (a compound having 20 or more is denoted as AA) | A (a compound having 10 or more and less than 20 is denoted as A) | 73.4
12 | CC[C@H](C)[C@@H]1NC(=O)[C@H](CC2CC2)N(C)C(=O)C[C@@H](C(=O)N(C)C)N(C)C(=O)[C@H](C2CCCC2)N(C)C(=O)C2(CC(C)(C)C2)NC(=O)[C@@H]2C[C@@H](C(F)(F)F)CN2C(=O)[C@H](CCc2cc(F)c(C(F)(F)F)c(F)c2)NC(=O)CN(C)C(=O)[C@H](Cc2ccc(F)cc2)N2CC/C=C\C[C@@H](C2=O)N(C)C(=O)CN(C)C1=O [PP1507] | A (a compound having 10 or more and less than 20 is denoted as A) | A (a compound having 10 or more and less than 20 is denoted as A) | 16.2
13 | CC[C@H](C)[C@@H]1NC(=O)[C@H](CC2CCCC2)N(C)C(=O)C[C@@H](C(=O)N(C)C)N(C)C(=O)[C@H](C2CCCC2)N(C)C(=O)C2(CCC2)NC(=O)[C@@H]2C[C@@H](C(F)(F)F)CN2C(=O)[C@H](CCc2cc(F)c(C(F)(F)F)c(F)c2)NC(=O)CN(C)C(=O)[C@H](Cc2ccc(F)cc2)N2CC/C=C\C[C@@H](C2=O)N(C)C(=O)CN(C)C1=O [PP1508] | A (a compound having 10 or more and less than 20 is denoted as A) | A (a compound having 10 or more and less than 20 is denoted as A) | 28.1
14 | CC[C@H](C)[C@@H]1NC(=O)[C@H](CC2CC2)N(C)C(=O)C[C@@H](C(=O)N2CCCC2)N(C)C(=O)[C@H](C2CCCC2)N(C)C(=O)C2(CCCC2)NC(=O)[C@@H]2C[C@@H](C(F)(F)F)CN2C(=O)[C@H](CCc2cc(F)c(C(F)(F)F)c(F)c2)NC(=O)CN(C)C(=O)[C@H](Cc2ccc(F)cc2)N2CC/C=C\C[C@@H](C2=O)N(C)C(=O)CN(C)C1=O [PP1509] | A (a compound having 10 or more and less than 20 is denoted as A) | A (a compound having 10 or more and less than 20 is denoted as A) | 67.9
15 | CCO[C@@H]1C[C@H]2C(=O)NC3(CCC3)C(=O)N(C)[C@@H](C(CC)CC)C(=O)N(C)[C@H](C(=O)N(C)C)CC(=O)N(C)[C@@H](CC3CC3)C(=O)N[C@@H]([C@@H](C)CC)C(=O)N(C)CC(=O)N(C)[C@H]3C/C=C\CCN(C3=O)[C@@H](Cc3ccc(F)cc3C)C(=O)N(C)CC(=O)N[C@@H](CCc3cc(F)c(C(F)(F)F)c(F)c3)C(=O)N2C1 [PP1514] | A (a compound having 10 or more and less than 20 is denoted as A) | A (a compound having 10 or more and less than 20 is denoted as A) | 72.7
